From patent publication US20150018384A1, “TREATMENT FOR HIGH CHOLESTEROL” (FibroGen, Inc., priority 2012, published 2015)

System: Cholesterol Biosynthesis Genes in the Mouse Liver
Test: Microarray expression of cholesterol biosynthesis genes in mouse liver
Format: in vivo
Experimental: A number of PHI compounds were evaluated for their effect on the expression of cholesterol biosynthesis genes in mouse liver. […] Liver tissue was harvested and stored in RNALater (Life Technologies). Total RNA was isolated with Trizol (Life Technologies) and purified with RNEasy96 (Qiagen) according to the manufacturers' protocols. RNA concentration was measured by NanoDrop (Thermo), and quality was assessed by Bioanalyzer (Agilent).
Biotinylated microarray probe was prepared using the 3′IVT Express kit (Affymetrix) and hybridized to mouse 430A 2.0 arrays as recommended in the manufacturer's protocol. Arrays were stained, washed, and scanned using Affymetrix equipment and software. Three arrays were run for each treatment and time point, each representing the liver sample from one individual animal.
Animals were sacrificed 4 h or 8 h later. Each compound was tested in a separate animal study with separate controls. Liver tissue was harvested and stored in RNALater (Life Technologies). Total RNA was isolated with Trizol (Life Technologies) and purified with RNEasy96 (Qiagen) according to the manufacturers' protocols. RNA concentration was measured by NanoDrop (Thermo), and quality was assessed by Bioanalyzer (Agilent).
For microarray analysis, RNA from animals in each treatment group was pooled in pairs (n=3 pairs for 4 h vehicle, n=2 pairs for all other treatment groups, for a total of 13 arrays per compound study). This approach was used to improve the signal-to-noise ratio on microarrays. Biotinylated probe was prepared using the One-Cycle cDNA synthesis kit (Affymetrix) and hybridized to mouse 430A 2.0 arrays as recommended in the manufacturer's protocol. Arrays were stained, washed, and scanned using Affymetrix equipment and software.
Array quality was assessed with GeneChip Operating System and/or Command Console software (Affymetrix). CEL files were uploaded to GeneSpring 7.3.1 (Agilent) using GC-RMA baseline correction. Principal Components Analysis was used to identify and reject outlier arrays. Data are reported as fold-change compared to timepoint-matched vehicle controls from the same study. Values less than 1.0 indicate a reduction of RNA in the treated animal liver tissue.

For `CC(C)Oc1ccc2c(O)c(C(=O)NCC(=O)O)nc(C#N)c2c1` [Compound H, [(1-Cyano-4-hydroxy-7-isopropoxy-isoquinoline-3-carbonyl)-amino]-acetic acid], the “3-hydroxy-3-methylglutaryl-Coenzyme A reductase (Hmgcr) RNA expression” value (60 mg/kg oral, 4 h) was 0.23 fold-change, the “3-hydroxy-3-methylglutaryl-Coenzyme A synthase 1 (Hmgcs1) RNA expression” value (60 mg/kg oral, 4 h) was 0.62 fold-change and the “7-dehydrocholesterol reductase (Dhcr7) RNA expression” value (“7-dehydrocholesterol reductase” below) (60 mg/kg oral, 4 h) was 0.83 fold-change. For the same molecule, the “NAD(P) dependent steroid dehydrogenase-like (Nsdhl) RNA expression” value (60 mg/kg oral, 4 h) was 0.76 fold-change, the “acetyl-Coenzyme A acetyltransferase 2 (Acat2) RNA expression” value (60 mg/kg oral, 4 h) was 0.71 fold-change and the “cytochrome P450, family 51 (Cyp51) RNA expression” value (“cytochrome P450” below) (60 mg/kg oral, 4 h) was 0.66 fold-change. For the same molecule, the “farnesyl diphosphate farnesyl transferase 1 (Fdft1) RNA expression” value (60 mg/kg oral, 4 h) was 0.59 fold-change, the “farnesyl diphosphate synthetase (Fdps) RNA expression” value (from here on “farnesyl diphosphate synthetase”) (60 mg/kg oral, 4 h) was 0.69 fold-change and the “isopentenyl-diphosphate delta isomerase (Idi1) RNA expression” value (shortened to “isopentenyl-diphosphate delta isomerase”) (60 mg/kg oral, 4 h) was 0.63 fold-change. The “lanosterol synthase (Lss) RNA expression” value (60 mg/kg oral, 4 h) was 0.65 fold-change, the “mevalonate (diphospho) decarboxylase (Mvd) RNA expression” value (“mevalonate (diphospho) decarboxylase” below) (60 mg/kg oral, 4 h) was 0.45 fold-change and the “mevalonate kinase (Mvk) RNA expression” value (60 mg/kg oral, 4 h) was 0.74 fold-change. For the same molecule, the “phosphomevalonate kinase (Pmvk) RNA expression” value (“phosphomevalonate kinase” below) (60 mg/kg oral, 4 h) was 0.71 fold-change, the “squalene epoxidase (Sqle) RNA expression” value (60 mg/kg oral, 4 h) was 0.95 fold-change and the “sterol-C4-methyl oxidase-like (Sc4mol) RNA expression” value (shortened to “sterol-C4-methyl oxidase-like”) (60 mg/kg oral, 4 h) was 0.50 fold-change. For the same molecule, the “sterol-C5-desaturase (fungal ERG3, delta-5-desaturase) homolog (S. cerevisae) (Sc5d) RNA expression” value (60 mg/kg oral, 4 h) was 0.92 fold-change, the “3-hydroxy-3-methylglutaryl-Coenzyme A reductase (Hmgcr) RNA expression” value (60 mg/kg oral, 8 h) was 0.17 fold-change and the “3-hydroxy-3-methylglutaryl-Coenzyme A synthase 1 (Hmgcs1) RNA expression” value (60 mg/kg oral, 8 h) was 0.19 fold-change. For the same molecule, the “7-dehydrocholesterol reductase” value (60 mg/kg oral, 8 h) was 0.39 fold-change, the “NAD(P) dependent steroid dehydrogenase-like (Nsdhl) RNA expression” value (60 mg/kg oral, 8 h) was 0.34 fold-change and the “acetyl-Coenzyme A acetyltransferase 2 (Acat2) RNA expression” value (60 mg/kg oral, 8 h) was 0.44 fold-change. For the same molecule, the “cytochrome P450” value (60 mg/kg oral, 8 h) was 0.28 fold-change, the “farnesyl diphosphate farnesyl transferase 1 (Fdft1) RNA expression” value (60 mg/kg oral, 8 h) was 0.33 fold-change and the “farnesyl diphosphate synthetase” value (60 mg/kg oral, 8 h) was 0.24 fold-change. For the same molecule, the “isopentenyl-diphosphate delta isomerase” value (60 mg/kg oral, 8 h) was 0.28 fold-change, the “lanosterol synthase (Lss) RNA expression” value (60 mg/kg oral, 8 h) was 0.35 fold-change and the “mevalonate (diphospho) decarboxylase” value (60 mg/kg oral, 8 h) was 0.24 fold-change. For the same molecule, the “mevalonate kinase (Mvk) RNA expression” value (60 mg/kg oral, 8 h) was 0.37 fold-change, the “phosphomevalonate kinase” value (60 mg/kg oral, 8 h) was 0.5 fold-change and the “squalene epoxidase (Sqle) RNA expression” value (60 mg/kg oral, 8 h) was 0.30 fold-change. The “sterol-C4-methyl oxidase-like” value (60 mg/kg oral, 8 h) was 0.19 fold-change and the “sterol-C5-desaturase (fungal ERG3, delta-5-desaturase) homolog (S. cerevisae) (Sc5d) RNA expression” value (60 mg/kg oral, 8 h) was 0.61 fold-change.

`COc1ccc(Cn2c(Cl)c(Cl)c3c(O)c(C(=O)NCC(=O)O)nc(C#N)c32)cc1` [Compound F] was tested, and the “3-hydroxy-3-methylglutaryl-Coenzyme A reductase (Hmgcr) RNA expression” value (10 mg/kg oral, 4 h) was 0.17 fold-change, the “3-hydroxy-3-methylglutaryl-Coenzyme A synthase 1 (Hmgcs1) RNA expression” value (10 mg/kg oral, 4 h) was 0.36 fold-change and the “7-dehydrocholesterol reductase” value (10 mg/kg oral, 4 h) was 0.63 fold-change. The “NAD(P) dependent steroid dehydrogenase-like (Nsdhl) RNA expression” value (10 mg/kg oral, 4 h) was 0.55 fold-change, the “acetyl-Coenzyme A acetyltransferase 2 (Acat2) RNA expression” value (10 mg/kg oral, 4 h) was 0.77 fold-change and the “cytochrome P450” value (10 mg/kg oral, 4 h) was 0.62 fold-change. For the same molecule, the “farnesyl diphosphate farnesyl transferase 1 (Fdft1) RNA expression” value (10 mg/kg oral, 4 h) was 0.56 fold-change, the “farnesyl diphosphate synthetase” value (10 mg/kg oral, 4 h) was 0.43 fold-change and the “isopentenyl-diphosphate delta isomerase” value (10 mg/kg oral, 4 h) was 0.50 fold-change. For the same molecule, the “lanosterol synthase (Lss) RNA expression” value (10 mg/kg oral, 4 h) was 0.51 fold-change, the “mevalonate (diphospho) decarboxylase” value (10 mg/kg oral, 4 h) was 0.28 fold-change and the “mevalonate kinase (Mvk) RNA expression” value (10 mg/kg oral, 4 h) was 0.76 fold-change. For the same molecule, the “phosphomevalonate kinase” value (10 mg/kg oral, 4 h) was 0.66 fold-change, the “squalene epoxidase (Sqle) RNA expression” value (10 mg/kg oral, 4 h) was 0.48 fold-change and the “sterol-C4-methyl oxidase-like” value (10 mg/kg oral, 4 h) was 0.39 fold-change. The “sterol-C5-desaturase (fungal ERG3, delta-5-desaturase) homolog (S. cerevisae) (Sc5d) RNA expression” value (10 mg/kg oral, 4 h) was 0.49 fold-change, the “3-hydroxy-3-methylglutaryl-Coenzyme A reductase (Hmgcr) RNA expression” value (10 mg/kg oral, 8 h) was 0.66 fold-change and the “3-hydroxy-3-methylglutaryl-Coenzyme A synthase 1 (Hmgcs1) RNA expression” value (10 mg/kg oral, 8 h) was 1.23 fold-change. For the same molecule, the “7-dehydrocholesterol reductase” value (10 mg/kg oral, 8 h) was 1.18 fold-change, the “NAD(P) dependent steroid dehydrogenase-like (Nsdhl) RNA expression” value (10 mg/kg oral, 8 h) was 1.40 fold-change and the “acetyl-Coenzyme A acetyltransferase 2 (Acat2) RNA expression” value (10 mg/kg oral, 8 h) was 1.09 fold-change. The “cytochrome P450” value (10 mg/kg oral, 8 h) was 1.05 fold-change, the “farnesyl diphosphate farnesyl transferase 1 (Fdft1) RNA expression” value (10 mg/kg oral, 8 h) was 1.42 fold-change and the “farnesyl diphosphate synthetase” value (10 mg/kg oral, 8 h) was 1.15 fold-change. The “isopentenyl-diphosphate delta isomerase” value (10 mg/kg oral, 8 h) was 1.08 fold-change, the “lanosterol synthase (Lss) RNA expression” value (10 mg/kg oral, 8 h) was 1.04 fold-change and the “mevalonate (diphospho) decarboxylase” value (10 mg/kg oral, 8 h) was 0.58 fold-change. For the same molecule, the “mevalonate kinase (Mvk) RNA expression” value (10 mg/kg oral, 8 h) was 0.88 fold-change, the “phosphomevalonate kinase” value (10 mg/kg oral, 8 h) was 1.53 fold-change and the “squalene epoxidase (Sqle) RNA expression” value (10 mg/kg oral, 8 h) was 0.81 fold-change. For the same molecule, the “sterol-C4-methyl oxidase-like” value (10 mg/kg oral, 8 h) was 0.92 fold-change and the “sterol-C5-desaturase (fungal ERG3, delta-5-desaturase) homolog (S. cerevisae) (Sc5d) RNA expression” value (10 mg/kg oral, 8 h) was 0.52 fold-change.

In the case of `COc1ccc(Cn2cc(Br)c3c(O)c(C(=O)NCC(=O)O)nc(C#N)c32)cc1` [Compound K, {[3-Bromo-7-cyano-4-hydroxy-1-(4-methoxy-benzyl)-1H-pyrrolo[2,3-c]pyridine-5-carbonyl]-amino}-acetic acid], the “3-hydroxy-3-methylglutaryl-Coenzyme A reductase (Hmgcr) RNA expression” value (10 mg/kg oral, 4 h) is reported as 0.40 fold-change, the “3-hydroxy-3-methylglutaryl-Coenzyme A synthase 1 (Hmgcs1) RNA expression” value (10 mg/kg oral, 4 h) is reported as 0.74 fold-change and the “7-dehydrocholesterol reductase” value (10 mg/kg oral, 4 h) is reported as 1.13 fold-change. For the same molecule, the “NAD(P) dependent steroid dehydrogenase-like (Nsdhl) RNA expression” value (10 mg/kg oral, 4 h) was 1.05 fold-change, the “acetyl-Coenzyme A acetyltransferase 2 (Acat2) RNA expression” value (10 mg/kg oral, 4 h) was 0.94 fold-change and the “cytochrome P450” value (10 mg/kg oral, 4 h) was 0.81 fold-change. For the same molecule, the “farnesyl diphosphate farnesyl transferase 1 (Fdft1) RNA expression” value (10 mg/kg oral, 4 h) was 0.78 fold-change, the “farnesyl diphosphate synthetase” value (10 mg/kg oral, 4 h) was 1.01 fold-change and the “isopentenyl-diphosphate delta isomerase” value (10 mg/kg oral, 4 h) was 0.88 fold-change. The “lanosterol synthase (Lss) RNA expression” value (10 mg/kg oral, 4 h) was 0.88 fold-change, the “mevalonate (diphospho) decarboxylase” value (10 mg/kg oral, 4 h) was 0.68 fold-change and the “mevalonate kinase (Mvk) RNA expression” value (10 mg/kg oral, 4 h) was 0.92 fold-change. For the same molecule, the “phosphomevalonate kinase” value (10 mg/kg oral, 4 h) was 0.88 fold-change, the “squalene epoxidase (Sqle) RNA expression” value (10 mg/kg oral, 4 h) was 1.46 fold-change and the “sterol-C4-methyl oxidase-like” value (10 mg/kg oral, 4 h) was 0.65 fold-change. For the same molecule, the “sterol-C5-desaturase (fungal ERG3, delta-5-desaturase) homolog (S. cerevisae) (Sc5d) RNA expression” value (10 mg/kg oral, 4 h) was 0.92 fold-change, the “3-hydroxy-3-methylglutaryl-Coenzyme A reductase (Hmgcr) RNA expression” value (10 mg/kg oral, 8 h) was 0.11 fold-change and the “3-hydroxy-3-methylglutaryl-Coenzyme A synthase 1 (Hmgcs1) RNA expression” value (10 mg/kg oral, 8 h) was 0.30 fold-change. For the same molecule, the “7-dehydrocholesterol reductase” value (10 mg/kg oral, 8 h) was 0.61 fold-change, the “NAD(P) dependent steroid dehydrogenase-like (Nsdhl) RNA expression” value (10 mg/kg oral, 8 h) was 0.56 fold-change and the “acetyl-Coenzyme A acetyltransferase 2 (Acat2) RNA expression” value (10 mg/kg oral, 8 h) was 0.63 fold-change. The “cytochrome P450” value (10 mg/kg oral, 8 h) was 0.32 fold-change, the “farnesyl diphosphate farnesyl transferase 1 (Fdft1) RNA expression” value (10 mg/kg oral, 8 h) was 0.39 fold-change and the “farnesyl diphosphate synthetase” value (10 mg/kg oral, 8 h) was 0.37 fold-change. The “isopentenyl-diphosphate delta isomerase” value (10 mg/kg oral, 8 h) was 0.34 fold-change, the “lanosterol synthase (Lss) RNA expression” value (10 mg/kg oral, 8 h) was 0.38 fold-change and the “mevalonate (diphospho) decarboxylase” value (10 mg/kg oral, 8 h) was 0.20 fold-change. For the same molecule, the “mevalonate kinase (Mvk) RNA expression” value (10 mg/kg oral, 8 h) was 0.49 fold-change, the “phosphomevalonate kinase” value (10 mg/kg oral, 8 h) was 0.96 fold-change and the “squalene epoxidase (Sqle) RNA expression” value (10 mg/kg oral, 8 h) was 0.39 fold-change. The “sterol-C4-methyl oxidase-like” value (10 mg/kg oral, 8 h) was 0.21 fold-change and the “sterol-C5-desaturase (fungal ERG3, delta-5-desaturase) homolog (S. cerevisae) (Sc5d) RNA expression” value (10 mg/kg oral, 8 h) was 0.24 fold-change.
